A melting point compilation (Tetko et al.)

For `O=C(O)c1cccc2c3c([nH]c12)CCCC3`, the melting point was 190 to 192 °C. `O=C1CC(C(F)F)=NN1` showed a melting point of 149 to 151 °C. Work on `OC(CNCc1ccccc1)c1ccco1` (stereo not given) yielded a melting point of 68 to 70 °C. Work on `CCOC(=O)c1cc(C)nc2cc(C)nn12` yielded a melting point of 81 to 83 °C. Work on `Nc1nc(-c2ccc(S(=O)(=O)N3CCCCCC3)cc2)cs1` yielded a melting point of 242 to 244 °C. In the case of `CC1CCC(N2CC(C(=O)O)CC2=O)CC1` (stereo not given), the melting point is reported as 143 to 145 °C. For `O=S(=O)(c1ccc(S)nc1)N1CCOCC1`, the melting point was 71 to 73 °C. Work on `O=C(O)c1cc2c(c(S(=O)(=O)Cl)c1)CCC2` yielded a melting point of 197 to 199 °C. `CC1CN(c2cc(N)cc(F)c2)CC(C)O1` (stereo not given) showed a melting point of 80 to 82 °C. Work on `NNC(=O)CCc1cccnc1` yielded a melting point of 92 to 94 °C. `Cc1ccc(CNC(=O)n2ccnc2)cc1` showed a melting point of 132 to 134 °C. For `O=C(Nc1ccc(Br)cc1)c1cccnc1Cl`, the melting point was 150 to 152 °C. `CS(=O)(=O)c1ccc(OCCCBr)cc1` showed a melting point of 93 to 95 °C. For `CCC(C)n1nccc1N` (stereo not given), the melting point was 30 to 32 °C. Compound `O=C(CCl)Nc1cccc(C(=O)N2CCSCC2)c1` has a melting point of 152 to 154 °C. Compound `CC(C)(C)c1nn(-c2ccccc2)cc1C(=O)O` has a melting point of 212 to 214 °C. `CC(=O)Nc1ccc(Br)c(C(=O)O)n1` showed a melting point of 189 to 191 °C. `Nc1nc(CN2CCN(c3nccs3)CC2)cs1` showed a melting point of 169 to 171 °C. In the case of `CCOC(=O)CNc1ccc(F)cc1`, the melting point is reported as 73 to 77 °C. With `O=Cc1ccc(-c2cccnc2)o1` the melting point was 104 to 106 °C. In the case of `O=C(O)c1cc(C2CC2)nc2c1cnn2Cc1ccncc1`, the melting point is reported as 238 to 240 °C. Work on `NC(=O)C1CCCCN1C(=O)c1cccc(Br)c1` (stereo not given) yielded a melting point of 177 to 179 °C. `N#Cc1cnc2ccc(Cl)cc2c1Cl` showed a melting point of 129 to 131 °C. With `CC(C)Cn1c(S)nnc1N1CCOCC1` the melting point was less than 17 °C. In the case of `C#CCNS(=O)(=O)c1cccc(C(=O)O)c1`, the melting point is reported as 168 to 172 °C. `Clc1ncc(-c2ccccc2)s1` gave a melting point of 40 to 42 °C. For `CCC(CC(=O)O)c1ccccc1` (stereo not given), the melting point was 59 to 61 °C. `CC1CCN(Cc2ccc(N)cc2)CC1` gave a melting point of 61 to 63 °C. Compound `N#Cc1cnn2c(O)cc(CCl)nc12` has a melting point of 369 to 371 °C. In the case of `COc1ccc(Cl)cc1C1(CN)CCOCC1`, the melting point is reported as 100 to 102 °C. Compound `CC(C)n1ncc(C(=O)O)c1N` has a melting point of 109 to 111 °C. `Cc1ccc(C23CC4CC(CC(C(=O)O)(C4)C2)C3)cc1` showed a melting point of 174 to 176 °C. With `Cn1c(Cl)nnc1-c1ccc(Cl)cc1` the melting point was 179 to 181 °C. In the case of `COc1cc(C=O)cc2c1OCCO2`, the melting point is reported as 81 to 83 °C. `COc1ccc(-c2csc(CC#N)n2)cc1OC` showed a melting point of 101 to 103 °C. `COc1ccc(Oc2ccc(CO)cc2)cc1` gave a melting point of 100 to 102 °C. With `NNC(=O)C1Cc2ccccc2O1` (stereo not given) the melting point was 150 to 152 °C. `O=C(CCl)c1ccc(Oc2ccccc2)cc1` gave a melting point of 54 to 56 °C. `CC(=O)Nc1cc(Cl)ccc1N` gave a melting point of 137 to 139 °C. Work on `NCCNS(=O)(=O)c1cccc(Cl)c1` yielded a melting point of 84 to 86 °C. Work on `CCCOc1ccc(C(=O)NN)cc1` yielded a melting point of 88 to 90 °C. `NCCC(O)(c1ccccc1)C(F)(F)F` (stereo not given) showed a melting point of 110 to 112 °C. `Cn1ccnc1CC(=O)c1ccccc1` gave a melting point of 96 to 98 °C. `O=C(O)c1ccc(Br)cc1OC(F)F` gave a melting point of 133 to 135 °C. For `O=C(CSc1ccccc1C(=O)O)NC1CCCCCCC1`, the melting point was 168 to 170 °C. For `Nc1cccc(N2CCNC2=O)c1`, the melting point was 149 to 151 °C. With `COCc1ccc(C(=O)O)cc1` the melting point was 88 to 92 °C. With `CC(C)(C)OC(=O)N(CC(=O)O)c1ccccc1` the melting point was 84 to 86 °C. With `Nc1cc(N2CCOC2=O)ccc1F` the melting point was 119 to 121 °C. In the case of `O=C1NC(=O)N(CCc2cccs2)C1=O`, the melting point is reported as 118 to 120 °C. `O=C(CCCl)Nc1cccc([N+](=O)[O-])c1` gave a melting point of 75 to 77 °C. Work on `C=CCn1nnnc1S` yielded a melting point of 66 to 68 °C. Work on `Nc1ccc(CNC(=O)c2ccc(Br)cc2)cc1` yielded a melting point of 173 to 175 °C. Compound `O=C(O)CCc1nc2cccc(Cl)c2[nH]1` has a melting point of 209 to 211 °C. In the case of `CC(C)N1C(=O)CNC1=O`, the melting point is reported as 83 to 85 °C. Work on `CSCc1c(C(=O)O)oc2ccccc12` yielded a melting point of 100 to 102 °C. With `COc1ccc(CNC(=O)CCl)cc1C(=O)O` the melting point was 133 to 135 °C. `Cc1ccc(CNC(=O)c2cccc(C#N)c2)cc1` showed a melting point of 134 to 136 °C. `O=C(O)COC(c1ccccc1)c1ccccc1` gave a melting point of 81 to 83 °C. Compound `COc1ccc(-c2ncc(C(=O)O)s2)cc1` has a melting point of 239 to 241 °C. Compound `CCN(CC)S(=O)(=O)c1ccc(N2CCCC2)c(C(=O)O)c1` has a melting point of 141 to 144 °C. With `CC(C)(NC(=O)c1ccccc1)C(N)=S` the melting point was 165 to 167 °C. `Cc1ccc(-c2ccc(C(=O)O)c(F)c2)cc1C` gave a melting point of 213 to 215 °C. `Cc1ccnc(Br)c1[N+](=O)[O-]` gave a melting point of 54 to 56 °C. With `CC(C)CC(=O)Nc1ccc(C(=O)O)cc1F` the melting point was 257 to 259 °C. For `O=C(O)c1ccc(CN2C(=O)C=CC2=O)cc1`, the melting point was 163 to 165 °C. Work on `CS(=O)(=O)CCS(=O)(=O)c1ccc(N)cc1` yielded a melting point of 209 to 211 °C. With `O=C(O)c1ccccc1-n1ncc(Cl)c(Cl)c1=O` the melting point was 155 to 156 °C. With `CCOC(=O)c1sc2nc(CS(=O)(=O)CC(=O)O)[nH]c(=O)c2c1C` the melting point was 277 to 279 °C. `CC(C)(C)OC(=O)NCCNC(=O)C1CCCNC1` (stereo not given) showed a melting point of 130 to 132 °C.
